Test systems include EKVX NSCLC; SNB-19 CNS; OVCAR-5 ovarian; HT29 colon; SF-268 CNS; U251 CNS; NCI-H460 lung; UACC-62 melanoma; T-47D breast; HL-60(TB) leukemia.
Holding throughout (experiment): inhibition of tumour cell growth, NCI panel, 48 h

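Dose response: 5 concentrations. Exposure: 48 h. Format: 96-well plates. Endpoint: linear interpolation; highest concentration if not reached. GI50: concentration for 50% inhibition of growth. TGI is the concentration that stops growth completely.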

As for `COc1cc(S(=O)(=O)Nc2ccc(C(=O)/C=C/c3ccc(O)cc3)cc2)ccc1F`, the GI50 with EKVX NSCLC is 80.5 µM; in the assay with SNB-19 CNS, over 100 µM; with OVCAR-5 ovarian, over 100 µM; with HT29 colon, over 100 µM; in the assay on SF-268 CNS, over 100 µM; in the assay on U251 CNS it was over 100 µM. For the same compound, the values for the GI50 in the assay with NCI-H460 lung, in the assay with UACC-62 melanoma and with T-47D breast were over 100 µM, 57.6 µM and over 100 µM, respectively. The TGI in the assay on EKVX NSCLC, in the assay on SNB-19 CNS, in the assay on OVCAR-5 ovarian, with HT29 colon, in the assay on SF-268 CNS and with U251 CNS was over 100 µM throughout. Further, the TGI in the assay on NCI-H460 lung, with UACC-62 melanoma and with T-47D breast was over 100 µM each time.

For the compound `O=c1nc2c(c(-c3ccc(Br)cc3)[nH]1)COC/C2=C\c1ccc(Br)cc1`, the TGI in the assay with EKVX NSCLC, in the assay on SNB-19 CNS, in the assay with OVCAR-5 ovarian, in the assay on HL-60(TB) leukemia, in the assay on HT29 colon and with SF-268 CNS was over 50 µM in each case. Moreover, the TGI in the assay on U251 CNS, in the assay on NCI-H460 lung, in the assay on UACC-62 melanoma and in the assay on T-47D breast was over 50 µM each time.

Turning to `COc1ccc(-c2c3c(n(C4OC(CO)C(O)C(O)C4O)c(=S)c2C#N)CCC3)cc1` (stereo not given), the TGI with SNB-19 CNS, in the assay with OVCAR-5 ovarian, in the assay on HL-60(TB) leukemia, in the assay with HT29 colon, in the assay with SF-268 CNS and in the assay with U251 CNS was over 100 µM each time. Further, the TGI in the assay with NCI-H460 lung, in the assay on UACC-62 melanoma and in the assay with T-47D breast was over 100 µM in each case.

On to `Cc1cc2c(O)c(c1)CN(CC(=O)O)Cc1cc(C)cc(c1O)CN(CC(=O)O)Cc1cc(C)cc(c1O)CN(CC(=O)O)C2`, for which the TGI in the assay on EKVX NSCLC, in the assay with SNB-19 CNS, with OVCAR-5 ovarian, in the assay on HT29 colon, with SF-268 CNS and in the assay with U251 CNS was over 100 µM each time. Moreover, the TGI in the assay on NCI-H460 lung, in the assay on UACC-62 melanoma and in the assay with T-47D breast was over 100 µM in each case.

`CC(=O)OCC1OC(n2c(-c3ccccc3)c(N=Nc3ccccc3)c(C)c(C#N)c2=S)C(OC(C)=O)C(OC(C)=O)C1OC(C)=O` (stereo not given): the TGI in the assay with SNB-19 CNS, with OVCAR-5 ovarian, with HL-60(TB) leukemia, in the assay on HT29 colon, with SF-268 CNS and in the assay on U251 CNS was over 100 µM each time. Besides, the TGI in the assay with NCI-H460 lung, in the assay on UACC-62 melanoma and in the assay with T-47D breast was over 100 µM each time.

As for `CS(=O)(=O)Nc1ccc2c(c1)N(S(C)(=O)=O)CC2CCl` (stereo not given), the TGI in the assay on EKVX NSCLC, in the assay on OVCAR-5 ovarian, in the assay on HL-60(TB) leukemia, with HT29 colon, with SF-268 CNS and in the assay with U251 CNS was over 100 µM each time. The TGI with NCI-H460 lung, in the assay with UACC-62 melanoma and in the assay on T-47D breast was over 100 µM throughout.

As for `N#C/C(C(=O)Nc1ccc(Cl)cc1)=C(/N)N1CCCC1`, the TGI in the assay on EKVX NSCLC, with SNB-19 CNS, with OVCAR-5 ovarian, in the assay on HL-60(TB) leukemia, in the assay on U251 CNS and in the assay with NCI-H460 lung was over 100 µM in each case. Moreover, the TGI with UACC-62 melanoma and in the assay with T-47D breast was over 100 µM in each case.

Regarding `COc1cc(C(c2c(O)c3ccccc3oc2=O)c2c(O)c3ccccc3oc2=O)cc(Br)c1O`, the TGI was 34.2 µM in the assay with EKVX NSCLC; 36.1 µM in the assay on SNB-19 CNS; 39.3 µM with OVCAR-5 ovarian; 64.2 µM in the assay on HL-60(TB) leukemia; 37.1 µM with HT29 colon; 30 µM in the assay with SF-268 CNS. Further, the TGI in the assay with U251 CNS stood at 31.9 µM; in the assay on UACC-62 melanoma it was 29.6 µM; in the assay on T-47D breast it was 53.3 µM.

Turning to `Cc1cc(C)c2c(=O)cc(-c3cccc(F)c3)[nH]c2n1`, the TGI in the assay on EKVX NSCLC is over 100 µM; in the assay with SNB-19 CNS it was over 100 µM; in the assay on OVCAR-5 ovarian, over 100 µM; in the assay on HL-60(TB) leukemia, 0.226 µM; in the assay with HT29 colon, 1.8 µM; in the assay on SF-268 CNS, over 93.3 µM. Moreover, the TGI is over 84.1 µM with U251 CNS, 2.45 µM in the assay with NCI-H460 lung and over 100 µM in the assay with T-47D breast.

In the case of `S=C(N/N=C\C(=N/NC(=S)N1CCCCC1)c1ccccc1)N1CCCCC1`, the TGI with EKVX NSCLC stood at 3.31 µM; in the assay with SNB-19 CNS, 3.84 µM; in the assay on OVCAR-5 ovarian, 3.33 µM; in the assay with HT29 colon, 4.61 µM; with SF-268 CNS, 3.72 µM; in the assay on U251 CNS, 3.56 µM. Besides, the TGI came out at 4.86 µM with NCI-H460 lung, 4.1 µM in the assay on UACC-62 melanoma and 6.72 µM in the assay with T-47D breast.

For `COc1cc(CC(C)NC(C)=O)cc(OC)c1` (stereo not given), the TGI in the assay on SNB-19 CNS, in the assay with OVCAR-5 ovarian, with HL-60(TB) leukemia, in the assay with HT29 colon, with SF-268 CNS and with U251 CNS was over 100 µM in each case. Also, the TGI in the assay with NCI-H460 lung, in the assay with UACC-62 melanoma and in the assay on T-47D breast was over 100 µM each time.

With `c1cncc(CC2(c3cc4ccccc4[nH]3)OCCO2)c1`, the TGI in the assay with SNB-19 CNS, in the assay on HL-60(TB) leukemia, with HT29 colon, in the assay with SF-268 CNS, in the assay with U251 CNS and in the assay on NCI-H460 lung was over 100 µM each time. For the same compound, the TGI with UACC-62 melanoma and with T-47D breast was over 100 µM each time.

For `CSC(SC)=C(C(=O)O)P(=O)(O)O`, the TGI in the assay on EKVX NSCLC, with SNB-19 CNS, in the assay with OVCAR-5 ovarian, with HL-60(TB) leukemia, with HT29 colon and in the assay with SF-268 CNS was over 100 µM each time. Besides, the TGI in the assay on NCI-H460 lung, in the assay on UACC-62 melanoma and with T-47D breast was over 100 µM each time.

The record behind these values is PubChem BioAssay (NCI).
